The results in this text go back to patent publication US12378328B2, “Biohybrid peptidoglycan oligomers” (Nanyang Technological University, priority 2019, dated 2025).

The test system of test [1] is S. aureus and E. faecalis. Nature of the test: STED super-resolution microscopy of cell walls that incorporated PGOs. The class given is cell-based. Here is the method: To prepare samples for super resolution STED microscopy, overnight broth cultures were grown in 5 ml of fresh culture broth (1:100 dilution) to prepare logarithmic phase cultures after incubation at 37° C. for 4 hours in a shaking incubator (225 rpm). Then, bacteria cells were pelleted by centrifugation at 1,500×g for 5 min, suspended in culture media (MHB and BHI) at a concentration of 10^8 CFU ml^−1 and incubated for 1 h in the dark in the presence of 100 μg/ml of rhodamine-labeled derivative of 1 at 37° C. with agitation (225 rpm). […] Cells were fixed for 1 h at 37° C. in a shaking incubator (225 rpm), washed three times in PBS and applied to a sterile glass bottom collagen coated dish (MatTek Corporation).
STED super resolution microscopy was performed on a Leica TCS SP8 STED-3× microscope (Leica Microsystems, Wetzlar, Germany) at SingHealth Advanced Biomaging Core. 479 nm and 556 nm lasers were used for fluorescence excitation, while 660 nm STED laser was used for depletion. In order to achieve maximum lateral resolution, all images were acquired in 2D STED mode. Further image processing required deconvolution, which was done using Huygens Professional software (Scientific Volume Imaging, Hilversum, Netherlands).
To characterize the bacterial PG cell walls that incorporated PGOs, the microscope images obtained from Example 5 were further analysed.

Another test concerns E. faecalis OG1RF. Nature of the test: TIRF microscopy of wild type and L-form bacteria. The class given is cell-based. The settings on record: 30 min, 37° C.; for fluorescence localisation, L-form cells: L-form E. faecalis OG1RF. An excerpt: L-form bacteria and fluorescence microscopy were deployed to further study the interaction between PGOs and bacterial cell walls. L-form bacteria are deficient in cell wall components (referring to substrates forming the cell wall) or cell wall fragments (referring to the residues formed after cell autolysis) on their surface. BOCILLIN™ FL (Boc-FL), a fluorescent penicillin-derivative, was used to compare the localisation of penicillin-derivatives to that of PGOs.
The localisation of PGOs-rhodamine was also compared to the membrane dye Polymyxin B-BODIPY FL (Polymyxin B). […] In comparison, the PGOs localised in discrete punctae on the L-form cell surfaces. […] Thus, it is concluded that PGOs' localisation patterns within bacterial cell walls strongly resemble penicillin-derivatives (FIG. 9, top row).
L-forms were generated using DM3 agar by modified methods from reported protocol (Molec. Gen. Genet., 1979, 168, 111-115). DM3 medium consists of 1.2 wt % agar, 0.5 wt % Tryptone, 0.5 wt % yeast extract, 1 M Succinate (pH 7.3), 3.5 wt % K2HPO4 and 1.5 wt % KH2PO4, 20 wt % Glucose, 1 M MgCl2 and 2 wt % BSA, with the balance being water. Parental strain E. faecalis OG1RF was grown overnight at 37° C. in DM3 broth. 100 μL of an overnight culture was directly plated on DM3 agar plates supplemented with 200 μg/ml penicillin G. The plates were incubated at 37° C. Small fried egg-like shaped colonies appeared after 5 days. The colonies were restreaked on DM3 agar with 200 μg/ml penicillin G for a few times to get pure colonies, and serial passaging (ten times) of pure colonies in DM3 agar with decreasing penicillin G concentrations to generate stable L-forms. The stable L-forms were stored at −80° C. in 20% glycerol.
Fluorescence microscopy was performed on Nikon TIRF microscope (Nikon instruments, NY, USA). BODIPY FL and sulforhodamine B were excited at 488 and 560 nm and emitted at 512 and 580 nm respectively. […]

Consider `CCCCN(CCCC)c1ccc(/C=C/c2cc[n+](CCC[N+](C)(C)CCCN)cc2)cc1.Cl.[Cl-].[Cl-]` [FM 1-43fx], for which the “localisation of signal on the bacterial cell” value in test [1] was “adsorbed directly onto the bacterial cell surface”.

Turning to Polymyxin B, the “fluorescence localisation, L-form cells” value in the test with E. faecalis OG1RF was “Strong uniform membranous staining”.

Take `Cc1cc(C)n2c1C=C1C=CC(CCC(=O)Nc3ccc(OCC(=O)N[C@@H]4C(=O)N5[C@@H]4SC(C)(C)[C@@H]5C(=O)[O-])cc3)=[N+]1[B-]2(F)F.[Na+]` [Boc-FL]: the “fluorescence localisation, L-form cells” value in the test on E. faecalis OG1RF was “only a few distinct fluorescent punctae”. Further, in the test with E. faecalis OG1RF (wild type E. faecalis OG1RF), the “fluorescence localisation, wild type cells” value was “intense fluorescence at the septum region and also the adjacent cell surface”.
